One may read the EC50 as the midpoint of the concentration-response curve. Read a low EC50 as an effect from little substance.

SMILES strings stand for the structures.

This assay concerns SARS-CoV-2 strain PIK35. Description: microbe, parasite or virus in culture. As to conditions: Severe acute respiratory syndrome coronavirus 2, Vero, 120 h. Type of assay: cell-based.

`O=c1nc(NO)ccn1[C@@H]1O[C@H](CO)[C@@H](O)[C@H]1O` [N^4-hydroxycytidine]: the EC50 is over 5 µM.

For the origin of these results see publication PMC9165921 (Molecular Biology, 2022).
